Source: PubChem BioAssay (NCI)
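Grown in 96-well plates, cells were treated for 48 hours with each compound at five concentrations. Insufficient inhibition: endpoint recorded as highest concentration tested. Abbreviation: GI50, concentration required for 50% inhibition of growth. TGI: total growth inhibition.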

Assays:
Test in all cases: inhibition of tumour cell growth, NCI panel, 48 h
[1] = tested on: K-562 leukemia
[2] = tested on: UO-31 renal
[3] = tested on: SK-MEL-5 melanoma
[4] = tested on: MALME-3M melanoma
[5] = tested on: RXF 393 renal
[6] = tested on: SK-MEL-28 melanoma
[7] = tested on: NCI-H460 lung
[8] = tested on: HCT-116 colon
[9] = tested on: HL-60(TB) leukemia
[10] = tested on: T-47D breast

Row | SMILES | TGI [1] [µM] | TGI [2] [µM] | TGI [3] [µM] | TGI [4] [µM] | TGI [5] [µM] | TGI [6] [µM] | TGI [7] [µM] | TGI [8] [µM] | TGI [9] [µM] | TGI [10] [µM] | GI50 [1] [µM] | GI50 [2] [µM] | GI50 [3] [µM] | GI50 [4] [µM] | GI50 [5] [µM] | GI50 [6] [µM] | GI50 [7] [µM] | GI50 [10] [µM] | GI50 [9] [µM]
1 | O=C(c1ccc(Cl)cc1)N(C(=S)N1CCN(c2ccccn2)CC1)c1ccccc1 | > 100 | > 100 | > 100 | > 100 | > 100 | > 100 | > 100 | > 100 | > 100 | – | – | – | – | – | – | – | – | – | –
2 | CC(=O)OCC1OC(OCC2OC(N3C(=S)N[C@H]([C@@H](O)[C@H](O)[C@H](O)CO)[C@H]3O)C(OC(C)=O)C(OC(C)=O)C2OC(C)=O)C(OC(C)=O)C(OC(C)=O)C1OC(C)=O (stereo not given in full) | > 100 | > 100 | > 100 | > 100 | > 100 | > 100 | > 100 | > 100 | – | > 100 | – | – | – | – | – | – | – | – | –
3 | COc1ccc(OC)c(CNc2ccc(O)c(C(=O)NCCc3ccc(F)cc3)c2)c1 | 19.1 | 24.8 | 19.9 | – | – | 27.7 | > 100 | 27.1 | – | – | – | – | – | – | – | – | – | – | –
4 | Oc1[nH]c2ccccc2c1N=NC(=S)N1CCCCCC1 | – | 3.08 | 2.04 | 3.02 | 2.43 | 7.61 | 5.28 | 1.9 | – | 17.6 | – | – | – | – | – | – | – | – | –
5 | Oc1c(I)cc(I)cc1CNCCCN(Cc1ccccn1)Cc1ccccn1 | 50 | 1.46 | 1.59 | 1.73 | 1.66 | 3.16 | 2.78 | – | 2.51 | 5.83 | 1.71 | 0.786 | 0.886 | 0.873 | 0.866 | 1.22 | 1.2 | 1.49 | 1.08
6 | C=C(C)CC1=C(C(=S)NCCO[Si](C)(C)C(C)(C)C)C(OCC)(OCC)C1=O | – | 35.9 | 51 | 27.1 | 31.5 | 34.6 | – | 50 | > 100 | 35.4 | – | – | – | – | – | – | – | – | –
7 | C=CCC1NCCC2=C1C(S(=O)(=O)c1ccc(C)cc1)c1ccccc12 (stereo not given) | 63.4 | 20.5 | 27.6 | 24 | 17.6 | 26.6 | 26.2 | 23.6 | – | 26.1 | – | – | – | – | – | – | – | – | –
8 | CC(=O)c1ccc2c(c1)oc(=O)n2CCN(C)C | – | – | – | > 100 | > 100 | > 100 | > 100 | > 100 | > 100 | – | – | – | – | – | – | – | – | – | –
9 | O=C(NCCO)c1c(O)c2ccccc2[nH]c1=O | > 100 | > 100 | > 100 | > 100 | > 100 | > 100 | > 100 | > 100 | > 100 | – | – | – | – | – | – | – | – | – | –
10 | O=C(CCc1cc(O)cc(O)c1)NCCc1ccc(O)c(O)c1 | – | > 100 | > 100 | – | > 100 | > 100 | > 100 | > 100 | – | > 100 | – | – | – | – | – | – | – | – | –
11 | Cc1ccc(S(=O)(=O)n2cc(-c3cnc(N)c(Br)n3)c3ccccc32)cc1 | > 100 | > 100 | 41.4 | – | 5.23 | > 57 | > 100 | – | 6.58 | > 100 | – | – | – | – | – | – | – | – | –
12 | O=c1c2c([nH]c3cc4c(cc13)OCO4)-c1ccccc1CCC2 | > 50 | > 50 | > 50 | > 50 | > 50 | > 50 | > 50 | > 50 | – | – | – | – | – | – | – | – | – | – | –
13 | COC(=O)c1ccc(C)cc1C1CN=NC12Cc1cc(C)c(C)cc1C2=O (stereo not given) | > 100 | > 100 | 49.2 | > 100 | > 100 | > 100 | > 100 | > 100 | 55.2 | – | – | – | – | – | – | – | – | – | –
14 | Cc1cc2nc3n(c2cc1C)C(c1c(F)cccc1F)SC3 (stereo not given) | 63.9 | > 10 | 28.2 | 65.1 | 38.8 | 40.2 | 38.5 | 28.1 | – | > 100 | – | – | – | – | – | – | – | – | –
15 | c1ccc(C(=NNc2nc3ccccc3[nH]2)c2ccccn2)nc1 | > 100 | 1.78 | 1.69 | – | – | > 100 | > 100 | 10.2 | – | > 100 | – | – | – | – | – | – | – | – | –
16 | CN(N)C(=O)NCCCl | > 100 | > 100 | > 100 | > 100 | > 100 | > 100 | > 100 | > 100 | > 100 | – | – | – | – | – | – | – | – | – | –
17 | CCC(=N\NC(N)=S)/C(C)=N/O | > 100 | > 100 | > 100 | > 100 | > 100 | > 100 | > 100 | > 100 | – | > 100 | – | – | – | – | – | – | – | – | –
18 | CCCCCCC(CCl)c1sc(-c2csc(CCNC(=O)OC(C)(C)C)n2)nc1C(=O)OC (stereo not given) | > 100 | 67.8 | 16.1 | – | – | > 100 | 46.8 | 31.6 | > 100 | 13 | – | – | – | – | – | – | – | – | –
19 | COc1ccc(N2C(=O)C3c4[nH]c5ccccc5c4C4CCC(C(C)C)CC4C3C2=O)cc1 (stereo not given) | > 100 | > 100 | > 100 | > 100 | – | > 100 | > 100 | > 100 | – | > 100 | – | – | – | – | – | – | – | – | –
20 | c1ccc(C(CCN2CCCC2)c2ccccn2)cc1 (stereo not given) | > 100 | > 100 | > 100 | > 100 | > 100 | > 100 | > 100 | > 100 | – | > 100 | – | – | – | – | – | – | – | – | –
21 | CC(C)(C)OC(=O)NC(CCCCNC(=O)OCc1ccccc1)C(=O)NC(CCCCNC(=O)OCc1ccccc1)C(=O)ON1C(=O)CCC1=O (stereo not given) | > 100 | > 100 | > 100 | > 100 | > 100 | > 100 | – | > 100 | > 100 | > 100 | – | – | – | – | – | – | – | – | –
22 | C[C@]12CCC(=O)C=C1CC[C@@H]1[C@@H]2C(=O)C[C@@]2(C)[C@H]1CC[C@]2(O)C(=O)CO | > 100 | > 100 | > 100 | > 100 | > 100 | > 100 | > 100 | > 100 | > 100 | – | – | – | – | – | – | – | – | – | –
23 | Cc1cc(NC2=NCCO2)c2c(c1C)CCCC2 | – | 30.7 | 31.5 | 25.9 | > 100 | 40.7 | 63 | > 100 | 33.2 | 76.5 | – | – | – | – | – | – | – | – | –
